The subject of data set [1] is DSP-4 induced toxicity. The note with it: literature; cited from earlier work.
The test system of data set [2] is DSP-4 neurotoxicity. Nature of the data set: Interaction of deprenyl and p-fluoro-deprenyl metabolites with DSP-4 neurotoxicity. Format: in vivo, rats. Particulars: for prevention of DSP-4 induced neurotoxicity in vivo: dose of 1-5 mg/kg i.p., without development of MAO inhibition. The protocol: The tests were carried out according to the method of Finnegan [Finnegan et al., Eur. J. Pharmacol., 184, 119-126, (1990)].

Data set [3] concerns MPTP neurotoxicity. Nature of the data set: MPTP neurotoxicity (dopamine, DOPAC, HVA levels). Details: DOPAC: unit not given beside the values. Format: in vivo. Particulars: for prevention of MPTP neurotoxicity in vivo: without a high degree of MAO inhibition. The procedure:
(§1) 3.) The potential metabolites of deprenyl and p-fluoro-deprenyl, (methylamphetamine, amphetamine and p-fluoro-methylamphetamine, p-fluoro-amphetamine, respectively) have a significant uptake inhibitory potency; they can prevent in vivo the MPTP neurotoxicity without the development of a high degree of MAO inhibition. The tests were carried out according to the method of Heikilla [Nature, 311, 467-469 (1984)].

For data set [4], the system named is NA uptake, rat brain synaptosomas, HYPOTHALAMUS
Nature of the data set: In vitro NA uptake inhibition on brain synaptosomes (hypothalamus). Format: biochemical.

Data set [5] has as its system DA uptake, rat brain synaptosomas, STRIATUM
Nature of the data set: In vitro DA uptake inhibition on brain synaptosomes (striatum). Format: biochemical.

In data set [6] the test system is MPP^+ uptake to the striatatal synaptosones. Nature of the data set: MPP+ uptake to striatal synaptosomes. The data set is classed as biochemical. Particulars: for IC50: striatal synaptosomes; for uptake inhibitory potency: potential metabolites. The protocol: as §1
Data set [7] can be described thus: Distribution of labelled deprenyl and p-fluoro-deprenyl in brain regions and plasma after oral administration. The data set is classed as in vivo. The note with it: rats, deprenyl […], p-fluoro-deprenyl 10 mg/kg. From the text:
The simultaneous presence and the equal quantities of the two labels indicate the unchanged molecule (the data relate to the molar concentrations calculated on the basis of the two labels).

The test system of data set [8] is DSP-4 neurotoxicity. Nature of the data set: Inhibition of DSP-4 neurotoxicity after oral deprenyl formulations (hippocampus noradrenaline, survival). The data set is classed as in vivo. Particulars: 3 mg/kg p.o.; 50 mg/kg DSP-4 ip.; rats. The protocol: The inhibition of DSP-4 neurotoxicity was measured in rats. For treating rats the schedule of Finnegan was followed [Finnegan et al., Eur. J. Pharmacol., 184, 119-126, (1990)].
Wistar male rats, weighing 170-200 g were used. Animals were housed six to a cage under constant temperature (22° C.), in a room illuminated 12 h per day. Food and water were freely available. Rats were pretreated orally with 3 mg/kg of the combination of example 3 (1 mg/kg "fast" (F)+2 mg/kg "slow" (S)), 1, 2, 4 and 8 hours before DSP-4 treatment (50 mg/kg; intraperitoneally).
Each hippocampus of the rats […].

In data set [9] the test system is MAO-A. Nature of the data set: Inhibition of MAO activity in brain nucleus free homogenates, 14C-5-HT substrate. Format: in vivo, domestic pig. The note with it: pig; p. os 96 h; UG-111 48 h (patch 24 h); UG-167 72 h (patch 48 h); UG-191 96 h (patch 72 h). The procedure:
(§2) MAO activity was measured radiometrically according to the methods of Wurtman and Axelrod [Biochem. Pharmacol. 12. 1414-19; (1963)] with a slight modification [K. Magyar in: Monoamine Oxidases and their Selective Inhibition, Ed.: K. Magyar, Pergamon Press, Akademiai Kiado, Budapest, 11-21; (1980)].

Data set [10] concerns MAO-A. Nature of the data set: Inhibition of MAO activity in liver, 14C-5-HT substrate. Format: in vivo, domestic pig. The note with it: pig; times as for brain; where three numbers are printed, apparently single animals. The procedure:
as §2

Data set [11] deals with MPTP induced neuronal damage. The note with it: literature; cited from earlier work.
The mark [12] stands for this setting: pretreatment 1 mg/kg i.p., DSP-4 50.
Setting [13] is: pretreatment 5 mg/kg i.p., DSP-4 30.
Where [14] appears, read: pretreatment 10 mg/kg i.p., DSP-4 50.
Setting [15] is: 1. treatment MPTP, 2. treatment the substance (MPTP: phys.s.).
Setting [16] is: 1. treatment MPTP, 2. treatment the substance (MPTP: phys.s.), % of physiological salt control.
The mark [17] stands for this setting: 1. treatment MPTP, 2. treatment the substance (MPTP: phys.s.), time between treatments 30.
The mark [18] stands for this setting: read-out: In vitro uptake inhibition DA STRIATUM
Where [19] appears, read: 1. treatment the substance, 2. treatment MPTP.
[20] abbreviates: 1. treatment the substance, 2. treatment MPTP, % of physiological salt control.

Where a name gives a salt, the structure may show the parent alone. Read-outs that look alike come from different tables or passages of the source.

`NC/C(=C/F)CCc1ccc(F)cc1` [MDL 72974A, (E)-4-fluoro-beta-fluoro-ethylene benzene butamine]: in data set [1], the “effect on DSP-4 induced toxicity / NA depletion” value is recorded as “fails to prevent DSP-4 induced toxicity”.

On to `CN[C@H](C)Cc1ccccc1` [(-)-metamphetamine], for which the “Na content of hippocampus in % ± S.D.” value is 61 ± 3.5% in [2] (setting [12]) and 116 ± 2.1% in data set [2] (setting [13]). The Survival % in data set [2] (setting [12]) is given as 100%; in [2] (setting [13]), 63%; in [2] (setting [14]) it was 0%.

On to `CN1CC=C(c2ccccc2)CC1` [MPTP, 1-methyl-4-phenyl-1,2,3,6-tetrahydropyridine], for which, in data set [3] (setting [15]), the DOPAC worked out at 0.7 ± 0.04 and the “HVA (homovanillic acid)” value worked out at 1.3 ± 0.07. In [3] (setting [16]), the DOPAC % is 77%, the Dopamine % is reported as 53% and the “HVA (homovanillic acid)” value came to 79%. This molecule also yielded a Dopamine in [3] (setting [17]) of 8.0 ± 0.5.

As to `C#CCN(C)[C@@H](C)Cc1ccc(F)cc1` [(+)-p-FLUORO-D], the values for the IC50 in [4] and in data set [5] (setting [18]) were 6.1 µM and 16 µM, respectively.

As for `CNC(C)Cc1ccc(F)cc1` (single isomer, unassigned; (+)) [(+)-p-F-metamphetamine], the IC50 turned out to be 1300 nM in [6]; 7.7 µM in data set [4] (listed as (+)-p-FLUORO-MA); 23 µM in data set [5] (read-out: In vitro uptake inhibition DA STRIATUM, listed as (+)-p-FLUORO-MA).

As to `C#CCN(C)C(C)Cc1ccc(F)cc1` (single isomer, unassigned; (-)) [(-)-p-FLUORO-D], the results for the IC50 in data set [4] and in data set [5] (setting [18]) were 13 µM and 29 µM, respectively.

On to `C#CCN(C)C(C)Cc1ccc(F)cc1` (stereo not drawn) [p-fluoro-deprenyl], for which, in data set [7], the “time in which the unchanged compound was absorbed” value amounted to 15 min.

Consider `C#CCN(C)[C@H](C)Cc1ccccc1` [(-)-deprenyl, (-)N-(-1-phenyl-isopropyl)-N-methyl-propinylamine-hydrochloride], for which the “prevention of the neurotoxicity of DSP-4” value in data set [8] is given as “can prevent”. Also, in data set [9], the “inhibition of MAO activity (%) brain 14C-5-HT” value is 20.14 ± 6.0%. Moreover, in data set [10], the “inhibition of MAO activity (%) liver 14C-5-HT” value came out at 10.45 ± 6.4%. Besides, the “effect on MPTP induced neuronal damage” value in data set [11] is “can be prevented”.

For the molecule `CNCCCN1c2ccccc2CCc2ccccc21` [desipramine, 10,11-Dihydro-N-methyl-5-H-dibenz(6,7)azepine-5-propanamine], the “effect on DSP-4 induced toxicity / NA depletion” value in [1] is recorded as “inhibit the NA-depleting effect of DSP-4”.

As to `CC(N)Cc1ccccc1` (stereo not drawn) [amphetamine], the uptake inhibitory potency entry in [6] is given as “significant”. Besides, the “prevention of MPTP neurotoxicity in vivo” value in [3] is recorded as “can prevent”. For the same molecule, in data set [2], the “prevention of DSP-4 induced neurotoxicity in vivo” value was “able to prevent”.

As to `CNC(C)Cc1ccc(F)cc1` (single isomer, unassigned; (-)) [(-)-p-F-metamphetamine], the IC50 in [6] came to 1300 nM; in [4] (listed as (-)-p-FLUORO-MA), 7.5 µM; in [5] (read-out: In vitro uptake inhibition DA STRIATUM, listed as (-)-p-FLUORO-MA) it was 300 µM. For the same molecule, the Survival % in [2] (setting [14]) is 0%.

Molecule `CC(N)Cc1ccc(F)cc1` (single isomer, unassigned; (+)) [(+)-p-F-amphetamine] gave an IC50 in data set [6] of 100 nM.

Take `C#CCN(C)Cc1ccccc1` [Pargyline]: the DOPAC in [3] (setting [15]) was found to be 0.5 ± 0.04; in data set [3] (setting [19]), 1.0 ± 0.06. Moreover, the “HVA (homovanillic acid)” value in [3] (setting [15]) was 0.9 ± 0.09; in [3] (setting [16]), 64%; in data set [3] (setting [19]) it was 1.4 ± 0.06; in data set [3] (setting [20]) it was 100%. Further, the results for the DOPAC % in data set [3] (setting [16]) and in data set [3] (setting [20]) were 55% and 111%, respectively. In addition, the Dopamine % worked out at 47% in [3] (setting [16]) and 91% in data set [3] (setting [20]). Moreover, the Dopamine turned out to be 7.1 ± 0.6 in [3] (setting [17]) and 13.8 ± 0.5 in [3] (1. treatment the substance, 2. treatment MPTP (pretreatment)).

As for `CC(N)Cc1ccc(F)cc1` (stereo not drawn) [p-fluoro-amphetamine], the uptake inhibitory potency result in data set [6] was “significant”. For the same molecule, the “prevention of MPTP neurotoxicity in vivo” value in data set [3] is reported as “can prevent”. For the same molecule, in [2], the “prevention of DSP-4 induced neurotoxicity in vivo” value is given as “able to prevent”.

As for `OC1(c2ccc(Cl)cc2)c2ccccc2C2=NCCN21` (stereo not drawn) [Mazindol], the DOPAC in [3] (setting [15]) is listed as 1.1 ± 0.08. Also, in [3] (setting [16]), the DOPAC % was 122% and the Dopamine % was found to be 98%. The molecule also registered a Dopamine in data set [3] (setting [17]) of 14.0 ± 0.8. Further, in data set [11], the “effect on MPTP induced neuronal damage” value is “can be retarded”.

In the case of `CC(N)Cc1ccc(F)cc1` (single isomer, unassigned; (-)) [(-)-p-F-amphetamine], in data set [6], the IC50 was found to be 720 nM.

These data come from US5589513A, “Pharmaceutical composition and process for the preparation thereof” (Chinoin Gyogyszer es Vegyeszeti Termekek Gyara Rt., priority 1991, dated 1996).
